Test results as given in patent US20220128542A1, “TREATMENT EFFICIENCY EVALUATION” (TX MEDIC AB, priority 2019, published 2022).
Read-outs that look alike come from different tables or passages of the source.

System: brain of rats subjected to severe traumatic brain injury (sTBI)
[1] = 1 mg/kg, 2 days post-TBI, of 221 genes
[2] = 1 mg/kg, 7 days post-TBI, of 2741 genes
[3] = 5 mg/kg, 2 days post-TBI, of 221 genes
[4] = 5 mg/kg, 7 days post-TBI, of 2741 genes
[5] = 15 mg/kg, 2 days post-TBI, of 221 genes
[6] = 15 mg/kg, 7 days post-TBI, of 2741 genes
[7] = 3 repeated doses of 15 mg/kg, 7 days post-TBI, of 2741 genes
[8] = DS 1 mg/kg, day 7 following TBI, relative to TBI model
[9] = DS 5 mg/kg, day 7 following TBI, relative to TBI model
[10] = DS 15 mg/kg, day 7 following TBI, relative to TBI model

Method: As a starting point, a list and expression levels of molecules differentially regulated by dextran sulfate relative to a TBI model for the three different doses (1 mg/kg, 5 mg/kg and 15 mg/kg) of dextran sulfate at day 7 following TBI were established.
Male Wistar rats of 300-350 g body weight were fed with standard laboratory diet and water ad libitum in a controlled environment. As the anesthetic mixture, the animals received 35 mg/kg b.w. ketamine and 0.25 mg/kg body weight midazolam by i.p. injection. Severe traumatic brain injury (sTBI) was induced by dropping a 450 g weight from 2 m height on to the rat head that had been protected by a metal disk previously fixed on the skull, according to the “weight drop” impact acceleration model (Marmarou et al., J Neurosurg. 1994; 80: 291-300). […] At the end of each period of treatment, rats were anesthetized again and then immediately sacrificed.
LMW-DS (Tikomed AB) was provided at a stock concentration of 20 mg/ml and was kept in a temperature-monitored refrigerator at 4° C. LMW-DS aliquots were diluted to the appropriate dosing concentration in sterile saline prior to delivery of a single subcutaneous injection.
Three doses of LMW-DS were administered subcutaneously 30 minutes post-TBI. The animals were sacrificed at 2 days post-TBI. The animals were divided into the following subgroups:
Three doses of LMW-DS were administered subcutaneously 30 minutes post-TBI. The animals were sacrificed at 7 days post-TBI. The animals were divided into the following subgroups:
An in vivo craniectomy was performed on all animals during anesthesia. After carefully removing the rat's skull, the brain was exposed and removed with a surgical spatula and quickly dropped in RNALater and preserved at 4° C. for further processing.
The arrays used were the Agilent Rat expression arrays.
Statistical analysis was performed to quantitate the effect of sTBI on the brain in this model. The follow-on analyses looked at the effects of LMW-DS in this model using different iterations and algorithms. Statistical analysis was carried out using the Metaboanalyst software package. Gene expression changes of 10% with a p<0.05 were regarded as significant.

sodium salt of dextran sulfate [LMW-DS]
genes with altered TBI-specific expression (1 mg/kg within 30 min after injury, 2 days of sTBI): 372 genes | genes with altered TBI-specific expression (1 mg/kg within 30 min after injury, 7 days of sTBI): 3602 genes | genes differing from healthy controls (1 mg/kg, 2 days after sTBI): 209 genes | TBI-deregulated genes remaining deregulated relative to healthy controls [1]: 22 genes | share of TBI-deregulated genes remaining deregulated [1]: 10% | genes differing from healthy controls (1 mg/kg, 7 days after sTBI): 282 genes | TBI-deregulated genes remaining deregulated relative to healthy controls [2]: 124 genes | share of TBI-deregulated genes remaining deregulated [2]: 4.5% | genes with altered TBI-specific expression (5 mg/kg within 30 min after TBI, 2 days of sTBI): 702 genes | genes with altered TBI-specific expression (5 mg/kg within 30 min after TBI, 7 days of sTBI): 3852 genes | genes differing from healthy controls (5 mg/kg, 2 days after sTBI): 258 genes | TBI-deregulated genes remaining deregulated relative to healthy controls [3]: 51 genes | share of TBI-deregulated genes remaining deregulated [3]: 23% | genes differing from healthy controls (5 mg/kg, 7 days after sTBI): 398 genes | TBI-deregulated genes remaining deregulated relative to healthy controls [4]: 169 genes | share of TBI-deregulated genes remaining deregulated [4]: 6.1% | genes with altered TBI-specific expression (15 mg/kg within 30 min after TBI, 2 days of sTBI): 247 genes | genes with altered TBI-specific expression (15 mg/kg within 30 min after TBI, 7 days of sTBI): 3901 genes | genes differing from healthy controls (15 mg/kg, 2 days after sTBI): 47 genes | TBI-deregulated genes remaining deregulated relative to healthy controls [5]: 19 genes | share of TBI-deregulated genes remaining deregulated [5]: 8.5% | genes differing from healthy controls (15 mg/kg, 7 days after sTBI): 158 genes | TBI-deregulated genes remaining deregulated relative to healthy controls [6]: 85 genes | share of TBI-deregulated genes remaining deregulated [6]: 3.1% | genes differing from healthy controls (3 repeated doses of 15 mg/kg, 7 days after sTBI): 234 genes | TBI-deregulated genes remaining deregulated relative to healthy controls [7]: 116 genes | share of TBI-deregulated genes remaining deregulated [7]: 4.25% | AFP fold change (FC) [8]: −1.439 | ATP2A3 fold change (FC) [8]: −1.284 | ATP8A1 fold change (FC) [8]: 1.280 | BDNF fold change (FC) [8]: 1.635 | CRH fold change (FC) [8]: 1.253 | FGF1 fold change (FC) [8]: −1.366 | HBEGF fold change (FC) [8]: 1.235 | IL-17B fold change (FC) [8]: 1.863 | KITLG fold change (FC) [8]: −1.251 | LDLR fold change (FC) [8]: 1.364 | NOG fold change (FC) [8]: 1.304 | PF4 fold change (FC) [8]: −1.453 | SLC1A4 fold change (FC) [8]: 1.498 | SLC7A11 fold change (FC) [8]: 1.490 | SLC16A7 fold change (FC) [8]: 1.493 | SLC29A1 fold change (FC) [8]: −1.370 | SLC40A1 fold change (FC) [8]: −1.345 | TNFSF15 fold change (FC) [8]: 3.878 | TSLP fold change (FC) [8]: 1.389 | TTR fold change (FC) [8]: −2.531 | VAV3 fold change (FC) [8]: −1.505 | AFP fold change (FC) [9]: −1.280 | ATP2A3 fold change (FC) [9]: −1.205 | ATP8A1 fold change (FC) [9]: 1.223 | BDNF fold change (FC) [9]: 1.708 | CRH fold change (FC) [9]: 1.316 | FGF1 fold change (FC) [9]: −1.382 | HBEGF fold change (FC) [9]: 1.274 | IL-17B fold change (FC) [9]: 1.765 | KITLG fold change (FC) [9]: −1.274 | LDLR fold change (FC) [9]: 1.291 | NOG fold change (FC) [9]: 1.305 | PF4 fold change (FC) [9]: −1.331 | SLC1A4 fold change (FC) [9]: 1.531 | SLC4A1 fold change (FC) [9]: −1.442 | SLC7A11 fold change (FC) [9]: 1.469 | SLC16A7 fold change (FC) [9]: 1.441 | SLC29A1 fold change (FC) [9]: −1.377 | SLC40A1 fold change (FC) [9]: −1.338 | TNFSF15 fold change (FC) [9]: 4.302 | TSLP fold change (FC) [9]: 1.446 | TTR fold change (FC) [9]: −1.915 | VAV3 fold change (FC) [9]: −1.418 | AFP fold change (FC) [10]: −1.208 | ATP2A3 fold change (FC) [10]: −1.216 | ATP8A1 fold change (FC) [10]: 1.212 | BDNF fold change (FC) [10]: 1.557 | CRH fold change (FC) [10]: 1.293 | FGF1 fold change (FC) [10]: −1.213 | GOSR1 fold change (FC) [10]: 1.233 | HBEGF fold change (FC) [10]: 1.250 | IL36RN fold change (FC) [10]: 1.284 | IL-17B fold change (FC) [10]: 1.729 | KITLG fold change (FC) [10]: −1.261 | LDLR fold change (FC) [10]: 1.212 | NOG fold change (FC) [10]: 1.281 | PF4 fold change (FC) [10]: −1.244 | SLC1A4 fold change (FC) [10]: 1.518 | SLC4A1 fold change (FC) [10]: −1.213 | SLC7A11 fold change (FC) [10]: 1.477 | SLC16A7 fold change (FC) [10]: 1.408 | SLC29A1 fold change (FC) [10]: −1.316 | SLC40A1 fold change (FC) [10]: −1.348 | TNFSF15 fold change (FC) [10]: 3.939 | TSLP fold change (FC) [10]: 1.322 | TTR fold change (FC) [10]: −2.179 | VAV3 fold change (FC) [10]: −1.318
